Where two headings read alike, the source gives them in different places.

This is an account of results in publication PMC6917776, “Discovery of a chemical probe for PRDM9” (Nature Communications, 2019).

The target in one experiment is T1, ASH1L (Homo sapiens, UniProt Q9NR48).
T1 construct: purchased Structural Genomics Consortium (SGC Toronto) in-house methyltransferase panel
Description: Methyltransferase selectivity assay (filter-based, nucleosome substrate). The experiment is classed as biochemical. The protocol: (§1) Selectivity against methyltransferases were determined as described previously. Details of the assays are described in the supplementary methods.
(§2) Methyltransferase selectivity assay1
(§3) The effect of chemical probes and negative controls on the methyltransferase activities of protein, DNA and RNA methyltransferases was tested by radiometric assays using 3H-SAM. […]
(§4) The CPM in the absence of compound or enzyme was defined as 100% activity and background (0%), respectively, for each dataset. […]
(§5) For proteins which were tested with nucleosome as substrate such as DOT1L, NSD1, NSD2, NSD3, and ASH1L, or unbiotinylated Poly(2′-deoxyinosinic-2′-deoxycytidylic acid) (Cat# 81349-500UG, Sigma Aldrich) such as DNMT3A/3L, and DNMT3B/3L, a filter-based assay was used. In this assay, a trichloroacetic acid (TCA) protein precipitation protocol was employed. A 10 µL reaction mixture was incubated at 23°C for 1 h, followed by addition of 50 µL of 10% TCA. The mixture was transferred to filter plates (Millipore, Billerica, MA, USA) that were centrifuged at 2000 rpm (Allegra X-15R; Beckman Coulter, Brea, CA, USA) for 2 min. Samples were washed twice with 10% TCA and once with ethanol (180 µL), and centrifuged. After drying, 100 µL MicroScint-O (Perkin Elmer) was added to each well and the plates were centrifuged to remove the liquid. A 70 µL volume of MicroScint-O was added and the CPM was measured with a TopCount plate reader.

The target of the next experiment is T2, NSD3 (Homo sapiens, UniProt Q9BZ95).
T2 construct: purchased Structural Genomics Consortium (SGC Toronto) in-house methyltransferase panel
T2 sequence (Q9BZ95 1-1437): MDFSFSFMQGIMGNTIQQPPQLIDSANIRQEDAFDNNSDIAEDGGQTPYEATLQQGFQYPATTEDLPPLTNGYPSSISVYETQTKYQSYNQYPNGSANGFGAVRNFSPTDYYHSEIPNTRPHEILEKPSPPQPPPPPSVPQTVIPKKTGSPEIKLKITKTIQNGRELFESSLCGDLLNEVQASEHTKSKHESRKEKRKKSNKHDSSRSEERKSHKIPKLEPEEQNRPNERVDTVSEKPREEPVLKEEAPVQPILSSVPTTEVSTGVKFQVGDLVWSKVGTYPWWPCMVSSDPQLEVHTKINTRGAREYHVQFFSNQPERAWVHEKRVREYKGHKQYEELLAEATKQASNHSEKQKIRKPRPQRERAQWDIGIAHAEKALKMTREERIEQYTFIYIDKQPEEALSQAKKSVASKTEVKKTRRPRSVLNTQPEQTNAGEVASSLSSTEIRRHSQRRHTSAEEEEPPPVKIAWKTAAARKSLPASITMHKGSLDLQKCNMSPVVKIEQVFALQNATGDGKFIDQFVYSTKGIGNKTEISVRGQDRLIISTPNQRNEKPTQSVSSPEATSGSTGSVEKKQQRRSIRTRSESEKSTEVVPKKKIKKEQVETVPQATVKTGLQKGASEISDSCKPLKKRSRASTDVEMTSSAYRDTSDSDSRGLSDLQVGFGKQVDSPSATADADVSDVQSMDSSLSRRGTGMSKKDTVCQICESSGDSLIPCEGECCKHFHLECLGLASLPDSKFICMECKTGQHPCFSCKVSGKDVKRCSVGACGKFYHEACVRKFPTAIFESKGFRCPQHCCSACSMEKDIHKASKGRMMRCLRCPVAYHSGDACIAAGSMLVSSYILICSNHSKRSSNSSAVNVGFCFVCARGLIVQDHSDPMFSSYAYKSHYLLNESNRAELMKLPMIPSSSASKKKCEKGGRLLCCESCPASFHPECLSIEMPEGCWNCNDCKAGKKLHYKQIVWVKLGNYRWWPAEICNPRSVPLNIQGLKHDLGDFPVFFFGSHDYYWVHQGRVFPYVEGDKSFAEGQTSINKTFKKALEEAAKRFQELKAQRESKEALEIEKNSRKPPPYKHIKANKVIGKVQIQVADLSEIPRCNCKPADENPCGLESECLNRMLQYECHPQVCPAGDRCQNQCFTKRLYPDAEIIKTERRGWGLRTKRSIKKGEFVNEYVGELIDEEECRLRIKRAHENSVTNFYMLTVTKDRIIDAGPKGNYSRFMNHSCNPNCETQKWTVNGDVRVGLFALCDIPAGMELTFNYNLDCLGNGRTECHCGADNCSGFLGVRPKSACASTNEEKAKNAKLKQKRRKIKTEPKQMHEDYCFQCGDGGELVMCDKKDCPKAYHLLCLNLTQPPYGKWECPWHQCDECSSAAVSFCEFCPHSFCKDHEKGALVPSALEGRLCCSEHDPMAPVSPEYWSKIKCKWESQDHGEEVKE
The experiment is described as above. The experiment is classed as biochemical. To be noted: for activity at 1 µM: 1µM compound; for Activity % / activity at 10 µM: 10µM compound; for Activity %: Exp1, Exp2, 10 µM. As for the experimental part:
as §1, §2, §3, §4, §5

[1] abbreviates: Exp1, Exp2, read-out: Activity %.

For the compound `COc1cc(OC)cc(-c2noc(N3CCN(C)C4(CCN(c5ccnc(C)c5)CC4)C3)n2)c1` [MRK-740], the Activity % on ASH1L (1µM compound, Exp1, Exp2, 1 µM) is reported as 102%; at NSD3 it was 99%. Further, the activity at 1 µM at ASH1L (1µM compound, Exp1, Exp2, read-out: Activity %) is 113%; on NSD3 (setting [1]), 89%. The activity at 10 µM is 93% on ASH1L (10µM compound, Exp1, Exp2, read-out: Activity %) and 95% at NSD3 (setting [1]).

Turning to `COc1cc(OC)cc(-c2noc(N3CCN(C)C4(CCN(c5ccccc5)CC4)C3)n2)c1` [MRK-740 -NC], the activity at 1 µM at ASH1L (1µM compound, Exp1, Exp2) worked out at 100%; on NSD3 (Exp1, Exp2), 97%. Besides, the activity at 10 µM came out at 99% at ASH1L (10µM compound, Exp1, Exp2) and 95% on NSD3 (Exp1, Exp2). Besides, the Activity % was 98% at ASH1L (10µM compound, Exp1, Exp2, 10 µM) and 93% at NSD3.
